Format in all cases: cell-based
The target in assay [1] is T1, SMARCA2 (Homo sapiens, UniProt P51531). Put plainly: MSD SMARCA2 degradation in A549 cell line. On the set-up: endogenous in cells. The note with it: for Dmax: A549, A549 cells; for Dmax / DC50: 24 h; for DC50 / SMARCA2 MSD A549 degradation 24 h: Average Dmax %: A549 cells; for DC50: read-out: SMARCA2 MSD A549 degradation 24 h: Average external-Abs DC50. In outline:
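A549 cells treated 24 h with compound, 3-fold series 1000 nM down to 0.152 nM plus DMSO. RIPA lysates captured on MSD plates, probed with rabbit anti-SMARCA2/BRM (1 µg/ml) then SULFO-TAG anti-rabbit, electrochemiluminescence read. DC50 and 24 h Dmax reported as letter bins.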

In assay [2] the target is T2, SMARCA4 (Homo sapiens, UniProt P51532).
T2 construct: SMARCA2 and SMARCA4 protein degradation in MV4-11 cells; endogenous in cells; host or cells: MV4-11
Put plainly: SMARCA4 Western blot MV4-11 degradation. The note with it: for Dmax: MV4-11, MV4-11 cells, read-out: SMARCA4 MSD MV411 degradation 24 h: average Dmax %; for Dmax / DC50: 24 h; for DC50 / SMARCA4 MSD MV411 degradation 24 h: average Dmax %: MV4-11 cells; for DC50: read-out: SMARCA4 MSD MV411 degradation 24 h: Mean external-Abs DC50.

Assay [3] deals with T1, SMARCA2. Put plainly: SMARCA2 Western blot MV4-11 degradation. More on the design: SMARCA2 and SMARCA4 protein degradation in MV4-11 cells; endogenous in cells; host or cells: MV4-11. The note with it: for Dmax: MV4-11, MV4-11 cells, read-out: SMARCA2 MSD MV411 degradation 24 h: average Dmax %; for Dmax / DC50: 24 h; for DC50 / SMARCA2 MSD MV411 degradation 24 h: average Dmax %: MV4-11 cells; for DC50: read-out: SMARCA2 MSD MV411 degradation 24 h: Mean external-Abs DC50. (In western blotting, separated proteins are transferred to a membrane and probed.)

Consider eleven compounds from patent US12606568B2, “SMARCA degraders and uses thereof” (Kymera Therapeutics, Inc., priority 2020, dated 2026).

T1 sequence (P51531 whole entry): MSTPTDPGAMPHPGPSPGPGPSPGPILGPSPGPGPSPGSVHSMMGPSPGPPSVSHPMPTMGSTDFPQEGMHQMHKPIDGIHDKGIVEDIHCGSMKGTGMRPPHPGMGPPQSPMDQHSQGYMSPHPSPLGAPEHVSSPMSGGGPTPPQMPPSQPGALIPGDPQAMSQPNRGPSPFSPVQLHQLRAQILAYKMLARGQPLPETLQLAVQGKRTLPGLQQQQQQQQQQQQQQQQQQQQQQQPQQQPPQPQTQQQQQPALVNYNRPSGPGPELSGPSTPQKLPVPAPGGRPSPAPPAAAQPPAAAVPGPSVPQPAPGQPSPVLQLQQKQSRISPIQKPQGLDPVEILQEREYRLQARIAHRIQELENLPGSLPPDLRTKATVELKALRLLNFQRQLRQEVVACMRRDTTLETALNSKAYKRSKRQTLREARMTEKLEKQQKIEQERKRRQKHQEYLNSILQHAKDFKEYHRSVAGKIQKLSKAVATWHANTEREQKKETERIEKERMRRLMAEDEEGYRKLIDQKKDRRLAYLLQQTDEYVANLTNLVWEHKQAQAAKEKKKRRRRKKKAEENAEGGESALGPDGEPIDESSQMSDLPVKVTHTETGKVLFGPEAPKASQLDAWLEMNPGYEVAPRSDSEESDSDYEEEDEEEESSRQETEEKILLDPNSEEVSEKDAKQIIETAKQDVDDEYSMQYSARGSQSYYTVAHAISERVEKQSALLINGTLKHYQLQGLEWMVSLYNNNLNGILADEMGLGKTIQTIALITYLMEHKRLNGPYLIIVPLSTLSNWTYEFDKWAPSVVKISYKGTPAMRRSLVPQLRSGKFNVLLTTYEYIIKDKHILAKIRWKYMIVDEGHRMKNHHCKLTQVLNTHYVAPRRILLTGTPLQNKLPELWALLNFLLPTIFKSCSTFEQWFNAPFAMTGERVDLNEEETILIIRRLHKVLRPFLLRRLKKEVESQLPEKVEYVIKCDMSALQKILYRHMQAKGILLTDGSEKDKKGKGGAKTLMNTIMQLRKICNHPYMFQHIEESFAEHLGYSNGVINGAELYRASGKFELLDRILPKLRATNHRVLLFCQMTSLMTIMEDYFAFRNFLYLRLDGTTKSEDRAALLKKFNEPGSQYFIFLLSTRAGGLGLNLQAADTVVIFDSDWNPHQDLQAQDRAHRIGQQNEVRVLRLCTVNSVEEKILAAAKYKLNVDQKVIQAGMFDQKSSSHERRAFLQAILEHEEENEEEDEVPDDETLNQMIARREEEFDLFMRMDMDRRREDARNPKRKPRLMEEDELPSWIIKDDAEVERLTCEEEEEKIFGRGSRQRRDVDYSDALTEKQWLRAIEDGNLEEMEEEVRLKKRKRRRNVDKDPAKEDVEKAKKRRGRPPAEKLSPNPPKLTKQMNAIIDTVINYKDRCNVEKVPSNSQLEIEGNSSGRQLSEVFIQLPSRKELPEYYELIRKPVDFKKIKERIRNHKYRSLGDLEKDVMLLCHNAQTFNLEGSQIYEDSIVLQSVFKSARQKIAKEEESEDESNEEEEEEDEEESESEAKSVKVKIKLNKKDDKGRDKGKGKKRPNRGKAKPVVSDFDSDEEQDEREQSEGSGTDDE
T2 sequence (P51532 whole entry): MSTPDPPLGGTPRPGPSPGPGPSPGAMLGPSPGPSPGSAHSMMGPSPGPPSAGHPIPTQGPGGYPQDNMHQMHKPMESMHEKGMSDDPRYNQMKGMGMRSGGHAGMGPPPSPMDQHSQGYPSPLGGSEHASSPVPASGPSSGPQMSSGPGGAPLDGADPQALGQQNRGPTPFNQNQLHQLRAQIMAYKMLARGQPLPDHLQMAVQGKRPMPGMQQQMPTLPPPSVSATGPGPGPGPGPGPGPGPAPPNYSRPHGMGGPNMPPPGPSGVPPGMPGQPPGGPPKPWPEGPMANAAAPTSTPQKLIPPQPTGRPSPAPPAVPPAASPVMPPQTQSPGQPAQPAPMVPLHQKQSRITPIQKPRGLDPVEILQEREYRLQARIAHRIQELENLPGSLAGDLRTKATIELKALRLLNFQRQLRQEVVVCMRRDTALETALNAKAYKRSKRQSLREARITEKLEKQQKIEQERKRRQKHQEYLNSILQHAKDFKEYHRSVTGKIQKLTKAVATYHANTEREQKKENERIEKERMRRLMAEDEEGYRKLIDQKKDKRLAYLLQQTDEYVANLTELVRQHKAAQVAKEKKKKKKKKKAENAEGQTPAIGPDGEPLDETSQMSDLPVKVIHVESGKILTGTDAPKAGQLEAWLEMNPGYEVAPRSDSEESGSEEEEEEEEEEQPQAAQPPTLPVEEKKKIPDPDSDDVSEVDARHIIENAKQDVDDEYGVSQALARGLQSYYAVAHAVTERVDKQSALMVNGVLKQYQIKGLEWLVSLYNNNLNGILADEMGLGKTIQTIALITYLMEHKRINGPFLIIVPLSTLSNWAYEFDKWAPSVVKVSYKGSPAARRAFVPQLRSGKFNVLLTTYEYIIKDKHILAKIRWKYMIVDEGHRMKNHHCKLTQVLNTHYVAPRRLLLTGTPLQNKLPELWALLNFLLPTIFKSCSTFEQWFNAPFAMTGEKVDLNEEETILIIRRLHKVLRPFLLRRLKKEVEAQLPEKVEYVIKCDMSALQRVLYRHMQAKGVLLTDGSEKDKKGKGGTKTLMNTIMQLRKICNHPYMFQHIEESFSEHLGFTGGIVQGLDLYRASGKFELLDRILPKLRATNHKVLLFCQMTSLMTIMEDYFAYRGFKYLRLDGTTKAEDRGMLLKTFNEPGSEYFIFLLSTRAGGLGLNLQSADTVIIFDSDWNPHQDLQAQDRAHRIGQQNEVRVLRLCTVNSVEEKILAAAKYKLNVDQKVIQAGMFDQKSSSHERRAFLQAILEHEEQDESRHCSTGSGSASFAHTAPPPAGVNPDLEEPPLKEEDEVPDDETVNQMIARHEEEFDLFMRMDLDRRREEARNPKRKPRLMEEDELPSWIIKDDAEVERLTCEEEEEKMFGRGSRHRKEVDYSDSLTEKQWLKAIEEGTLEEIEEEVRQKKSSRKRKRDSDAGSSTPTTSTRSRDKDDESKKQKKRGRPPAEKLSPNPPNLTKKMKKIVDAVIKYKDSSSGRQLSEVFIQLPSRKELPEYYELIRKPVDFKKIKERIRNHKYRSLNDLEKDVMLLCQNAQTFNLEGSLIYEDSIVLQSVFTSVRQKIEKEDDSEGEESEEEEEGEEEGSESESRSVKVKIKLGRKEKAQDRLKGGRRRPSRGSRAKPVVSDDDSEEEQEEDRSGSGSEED

For the compound `Cc1ncsc1-c1ccc(CNC(=O)[C@@H]2C[C@@H](O)CN2C(=O)C(c2cc(OCCN3CCC(O[C@H]4C[C@H](Oc5cc(N6C7CCC6CN(c6cc(-c8ccccc8O)nnc6N)C7)ccn5)C4)CC3)no2)C(C)C)cc1` (stereo partly drawn) [I-22, (2S,4R)-1-(2-(3-(2-(4-((1r,3r)-3-((4-(3-(3-amino-6-(2-hydroxyphenyl)pyridazin-4-yl)-3,8-diazabicyclo[3.2.1]octan-8-yl)pyridin-2-yl)oxy)cyclobutoxy)piperidin-1-yl)ethoxy)isoxazol-5-yl)-3-methylbutanoyl)-4-hydroxy-N-(4-(4-methylthiazol-5-yl)benzyl)pyrrolidine-2-carboxamide], the Dmax (in general, the greatest extent of degradation seen) was over 90% in assay [1], over 90% in assay [2] and 70 to 90% in assay [3]. The DC50 (in general, the midpoint of the concentration-degradation curve) in assay [1] was 501 to 1000 nM; in assay [2], over 1000 nM; in assay [3] it was under 100 nM.
With `Cc1n[nH]c(C)c1-c1ccc(CNC(=O)[C@@H]2C[C@@H](O)CN2C(=O)[C@@H](NC(=O)[C@H]2CC3(C2)C[C@H](N2CCC(c4cnc(N5C6CCC5CN(c5cc(-c7ccccc7O)nnc5N)C6)nc4)CC2)C3)C(C)(C)C)cc1` (stereo partly drawn) [I-31, (2S,4R)-1-((2S)-2-(6-(4-(2-(3-(3-amino-6-(2-hydroxyphenyl)pyridazin-4-yl)-3,8-diazabicyclo[3.2.1]octan-8-yl)pyrimidin-5-yl)piperidin-1-yl)spiro[3.3]heptane-2-carboxamido)-3,3-dimethylbutanoyl)-N-(4-(3,5-dimethyl-1H-pyrazol-4-yl)benzyl)-4-hydroxypyrrolidine-2-carboxamide], the Dmax in assay [1] was under 50%; in assay [2], under 50%; in assay [3], 50 to 70%. Also, the results for the half-maximal degradation concentration (DC50) in assay [2] and in assay [3] were over 1000 nM and under 100 nM, respectively.
Regarding `Cn1nccc1-c1ccc(CNC(=O)[C@@H]2C[C@@H](O)CN2C(=O)[C@@H](NC(=O)[C@H]2CC3(C2)C[C@H](N2CCC(c4cnc(N5C6CCC5CN(c5cc(-c7ccccc7O)nnc5N)C6)nc4)CC2)C3)C(C)(C)C)cc1` (stereo partly drawn) [I-36, (2S,4R)-1-((2S)-2-(6-(4-(2-(3-(3-amino-6-(2-hydroxyphenyl)pyridazin-4-yl)-3,8-diazabicyclo[3.2.1]octan-8-yl)pyrimidin-5-yl)piperidin-1-yl)spiro[3.3]heptane-2-carboxamido)-3,3-dimethylbutanoyl)-4-hydroxy-N-(4-(1-methyl-1H-pyrazol-5-yl)benzyl)-pyrrolidine-2-carboxamide], in assay [1], the “SMARCA2 MSD A549 degradation 24 h: Average Dmax %” value is “B (B (>70-90% o degradation))” and the DC50 lay in the range of 100 to 500 nM. In assay [2], the “SMARCA4 MSD MV411 degradation 24 h: average Dmax %” value is “D (D (<50% degradation))” and the DC50 was over 1000 nM. In assay [3], the “SMARCA2 MSD MV411 degradation 24 h: average Dmax %” value was “B (B (>70-90% degradation))” and the DC50 is under 100 nM.
With `Cc1ncsc1-c1ccc(CNC(=O)[C@@H]2C[C@@H](O)CN2C(=O)[C@H](c2cc(OCCCN3CCC(c4cnc(N5C6CCC5CN(c5cc(-c7ccccc7O)nnc5N)C6)nc4)CC3)no2)C(C)C)cc1` [I-52, (2S,4R)-1-((2S)-2-(3-(3-(4-(2-(3-(3-amino-6-(2-hydroxyphenyl)pyridazin-4-yl)-3,8-diazabicyclo[3.2.1]octan-8-yl)pyrimidin-5-yl)piperidin-1-yl)propoxy)isoxazol-5-yl)-3-methylbutanoyl)-4-hydroxy-N-(4-(4-methylthiazol-5-yl)benzyl)pyrrolidine-2-carboxamide], the Dmax in assay [1], in assay [2] and in assay [3] was over 90% each time. Besides, the DC50 in assay [1], in assay [2] and in assay [3] was under 100 nM throughout.
Consider `Cc1ncsc1-c1ccc([C@H](C)NC(=O)[C@@H]2C[C@@H](O)CN2C(=O)[C@@H](NC(=O)[C@H]2CC3(C2)C[C@H](N2CCC(c4cnc(N5C6CCC5CN(c5cc(-c7ccccc7O)nnc5N)C6)nc4)CC2)C3)C(C)(C)C)cc1` (single isomer, unassigned) [I-2], for which, in assay [1], the “SMARCA2 MSD A549 degradation 24 h: Average Dmax %” value was “A (A (>90% o degradation))” and the DC50 was under 100 nM. In assay [2], the “SMARCA4 MSD MV411 degradation 24 h: average Dmax %” value is “B (B (>70-90% degradation))” and the DC50 is under 100 nM. For the same compound, in assay [3], the “SMARCA2 MSD MV411 degradation 24 h: average Dmax %” value is “A (A (>90% degradation))” and the DC50 is under 100 nM.
Regarding `Cc1ncsc1-c1ccc([C@H](C)NC(=O)[C@@H]2C[C@@H](O)CN2C(=O)[C@@H](NC(=O)[C@H]2CC3(C2)C[C@H](N2CCC(c4ccc(N5C6CCC5CN(c5cc(-c7ccccc7O)nnc5N)C6)cc4)CC2)C3)C(C)(C)C)cn1` (single isomer, unassigned) [I-5], in assay [1], the Dmax is under 50% and the 50% degradation concentration (DC50) was over 1000 nM. Moreover, in assay [2], the “SMARCA4 MSD MV411 degradation 24 h: average Dmax %” value is listed as “D (D (<50% degradation))” and the 50% degradation concentration (DC50) is over 1000 nM. Moreover, in assay [3], the Dmax is under 50% and the DC50 lay within 100 to 500 nM.
`Cc1ncsc1-c1ccc(CNC(=O)[C@@H]2C[C@@H](O)CN2C(=O)[C@@H](NC(=O)C2CC3(C2)CN(C2CCN(c4cnc(N5C6CCC5CN(c5cc(-c7ccccc7O)nnc5N)C6)nc4)CC2)C3)C(C)(C)C)cc1` [I-10, 2-(1-(2-(3-(3-amino-6-(2-hydroxyphenyl)pyridazin-4-yl)-3,8-diazabicyclo[3.2.1]octan-8-yl)pyrimidin-5-yl)piperidin-4-yl)-N—((S)-1-((2S,4R)-4-hydroxy-2-((4-(4-methylthiazol-5-yl)benzyl)carbamoyl)pyrrolidin-1-yl)-3,3-dimethyl-1-oxobutan-2-yl)-2-azaspiro[3.3]heptane-6-carboxamide]: the Dmax in assay [1] was 70 to 90%; in assay [2], under 50%; in assay [3] it was 70 to 90%. Further, the DC50 was 501 to 1000 nM in assay [1], over 1000 nM in assay [2] and under 100 nM in assay [3].
As for `Cc1ncsc1-c1ccc([C@H](C)NC(=O)[C@@H]2C[C@@H](O)CN2C(=O)[C@@H](NC(=O)[C@H]2CC3(C2)C[C@H](N2CCC(c4ccc(N5C6CCC5CN(c5cc(-c7ccccc7O)nnc5N)C6)cc4)CC2)C3)C(C)(C)C)cn1` (single isomer, unassigned) [I-6], in assay [1], the “SMARCA2 MSD A549 degradation 24 h: Average Dmax %” value is recorded as “B (B (>70-90% o degradation))” and the DC50 was over 1000 nM. In addition, in assay [2], the “SMARCA4 MSD MV411 degradation 24 h: average Dmax %” value is “A (A (>90% degradation))” and the DC50 was over 1000 nM. For the same compound, in assay [3], the “SMARCA2 MSD MV411 degradation 24 h: average Dmax %” value is “C (C (50-70% degradation))” and the DC50 was in the range of 501 to 1000 nM.
Consider `Cc1n[nH]c(C)c1-c1ccc(CNC(=O)[C@@H]2C[C@@H](O)CN2C(=O)[C@@H](NC(=O)[C@H]2CC3(C2)C[C@H](N2CCC(c4cnc(N5C6CCC5CN(c5cc(-c7ccccc7O)nnc5N)C6)nc4)CC2)C3)C(C)(C)C)cc1` (stereo partly drawn) [I-32, (2S,4R)-1-((2S)-2-(6-(4-(2-(3-(3-amino-6-(2-hydroxyphenyl)pyridazin-4-yl)-3,8-diazabicyclo[3.2.1]octan-8-yl)pyrimidin-5-yl)piperidin-1-yl)spiro[3.3]heptane-2-carboxamido)-3,3-dimethylbutanoyl)-N-(4-(3,5-dimethyl-1H-pyrazol-4-yl)benzyl)-4-hydroxypyrrolidine-2-carboxamide], for which the “SMARCA2 MSD A549 degradation 24 h: Average Dmax %” value in assay [1] was “D (D (<50% degradation))”. Also, in assay [2], the “SMARCA4 MSD MV411 degradation 24 h: average Dmax %” value is reported as “D (D (<50% degradation))” and the DC50 is over 1000 nM. In assay [3], the “SMARCA2 MSD MV411 degradation 24 h: average Dmax %” value is given as “D (D (<50% degradation))” and the DC50 lay within 100 to 500 nM.
For `Cc1ncsc1-c1ccc(CNC(=O)[C@@H]2C[C@@H](O)CN2C(=O)[C@@H](NC(=O)[C@H]2CC3(C2)C[C@H](N2CC4(CN(c5cnc(N6C7CCC6CN(c6cc(-c8ccccc8O)nnc6N)C7)nc5)C4)C2)C3)C(C)(C)C)cc1` (stereo partly drawn) [I-11, (2S,4R)-1-((2S)-2-(6-(6-(2-(3-(3-amino-6-(2-hydroxyphenyl)pyridazin-4-yl)-3,8-diazabicyclo[3.2.1]octan-8-yl)pyrimidin-5-yl)-2,6-diazaspiro[3.3]heptan-2-yl)spiro[3.3]heptane-2-carboxamido)-3,3-dimethylbutanoyl)-4-hydroxy-N-(4-(4-methylthiazol-5-yl)benzyl)pyrrolidine-2-carboxamide], the Dmax in assay [1] is 70 to 90%; in assay [2], under 50%; in assay [3], 70 to 90%. For the same compound, the DC50 is 100 to 500 nM in assay [1], over 1000 nM in assay [2] and under 100 nM in assay [3].
Consider `Cc1ncsc1-c1ccc(CNC(=O)[C@@H]2C[C@@H](O)CN2C(=O)[C@@H](NC(=O)C2CC3(C2)CC(N2CCC(Oc4cc(N5C6CCC5CN(c5cc(-c7ccccc7O)nnc5N)C6)ccn4)CC2)C3)C(C)(C)C)cc1` (stereo partly drawn) [I-38, (2S,4R)-1-((2S)-2-(6-(4-((4-(3-(3-amino-6-(2-hydroxyphenyl)pyridazin-4-yl)-3,8-diazabicyclo[3.2.1]octan-8-yl)pyridin-2-yl)oxy)piperidin-1-yl)spiro[3.3]heptane-2-carboxamido)-3,3-dimethylbutanoyl)-4-hydroxy-N-(4-(4-methylthiazol-5-yl)benzyl)pyrrolidine-2-carboxamide], for which the Dmax is 70 to 90% in assay [1], over 90% in assay [2] and under 50% in assay [3]. Besides, the DC50 in assay [1], in assay [2] and in assay [3] was over 1000 nM throughout.
